Data as given in patent US11274084B2, “3-aryl-4-amido-bicyclic [4,5,0] hydroxamic acids as HDAC inhibitors” (Valo Health, Inc., priority 2015, dated 2022).
pIC50: −log10 of the molar value.

These molecules were tested against T1, HDAC6 (Homo sapiens, UniProt Q9UBN7) (assay: In vitro histone deacetylase assay: enzymatic HDAC6 assay by electrophoretic mobility shift). Settings: full length human recombinant HDAC6 1 nM, 2 μM peptide substrate RHKK(Ac)-NH2, 25° C., 12 concentrations; read-out: Inhibitory Concentration (IC50) against HDAC6, Activity Range.
T1 construct: Full length human recombinant HDAC6 protein; made in house
T1 sequence (Q9UBN7 1-1215): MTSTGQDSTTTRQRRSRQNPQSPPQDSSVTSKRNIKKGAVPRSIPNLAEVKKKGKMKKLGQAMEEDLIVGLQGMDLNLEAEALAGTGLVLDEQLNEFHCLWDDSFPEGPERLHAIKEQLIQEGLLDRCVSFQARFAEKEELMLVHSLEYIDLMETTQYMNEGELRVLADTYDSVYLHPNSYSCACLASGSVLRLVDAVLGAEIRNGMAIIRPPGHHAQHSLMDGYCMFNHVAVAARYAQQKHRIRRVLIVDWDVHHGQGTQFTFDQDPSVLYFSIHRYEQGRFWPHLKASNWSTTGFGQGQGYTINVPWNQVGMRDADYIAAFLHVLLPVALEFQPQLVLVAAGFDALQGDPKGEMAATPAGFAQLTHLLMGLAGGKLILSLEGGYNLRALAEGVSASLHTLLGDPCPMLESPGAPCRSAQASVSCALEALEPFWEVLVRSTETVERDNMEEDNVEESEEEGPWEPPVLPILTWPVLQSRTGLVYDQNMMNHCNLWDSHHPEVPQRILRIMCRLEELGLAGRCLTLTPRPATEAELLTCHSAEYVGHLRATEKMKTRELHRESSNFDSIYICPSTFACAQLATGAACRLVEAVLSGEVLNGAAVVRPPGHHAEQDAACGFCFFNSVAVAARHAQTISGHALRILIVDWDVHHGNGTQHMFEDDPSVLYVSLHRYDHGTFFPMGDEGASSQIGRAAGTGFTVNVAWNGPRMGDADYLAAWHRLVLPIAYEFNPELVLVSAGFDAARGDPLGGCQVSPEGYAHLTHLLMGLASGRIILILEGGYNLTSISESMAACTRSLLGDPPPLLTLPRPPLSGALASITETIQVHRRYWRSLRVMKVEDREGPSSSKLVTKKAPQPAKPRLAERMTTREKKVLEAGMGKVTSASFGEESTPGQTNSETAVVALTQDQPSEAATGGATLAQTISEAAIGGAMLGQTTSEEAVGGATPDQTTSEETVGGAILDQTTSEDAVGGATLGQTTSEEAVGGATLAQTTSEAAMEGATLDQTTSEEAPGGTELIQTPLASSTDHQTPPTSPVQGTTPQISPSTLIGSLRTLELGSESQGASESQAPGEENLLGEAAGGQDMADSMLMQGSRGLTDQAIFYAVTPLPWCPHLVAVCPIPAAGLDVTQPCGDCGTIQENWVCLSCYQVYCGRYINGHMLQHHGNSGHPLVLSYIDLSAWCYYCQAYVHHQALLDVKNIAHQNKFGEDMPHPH
Type: biochemical
Procedure: The enzymatic HDAC6 assay was performed using electrophoretic mobility shift assay. […] The enzymatic reactions were assembled in 384-well plates in a total volume of 25 μL of a reaction buffer comprising. 100 mM HEPES, pH 7.5, 25 mM KCl, 0.1% bovine serum albumin, 0.01% Triton X-100, 1% DMSO (from compounds), 2 μM of the fluorescently labeled peptide substrate, and enzyme. The enzyme was added at a final concentration of 1 nM. The peptide substrate RHKK(Ac)-NH2 was used. The compounds were tested at 12 concentrations spaced by 3× dilution intervals. Negative control samples (0%-inhibition in the absence of inhibitor) and positive control samples (100%-inhibition) were assembled in replicates of four in each assay plate. The reactions were incubated at 25° C. and quenched by the addition of 45 μL of termination buffer (100 mM HEPES, pH 7.5, 0.01% Triton X-100, 0.05% SDS).
The terminated assay plates were analyzed on LabChip® 3000 microfluidic electrophoresis instrument (Perkin Elmer/Caliper Life Sciences). The fluorescence intensity of the electrophoretically separated de-acetylated product and substrate peptide was measured. Activity in each sample was determined as the product to sum ratio (PSR):P/(S+P), where P is the peak height of the product peptide and S is the peak height of the substrate peptide. Percent inhibition (Pinh) is determined using the following equation:
Pinh=(PSR0%−PSRinh)/(PSR0%−PSR100%)*100, where PSRinh is the product sum ratio in the presence of inhibitor, PSR0% is the average product sum ration in the absence of inhibitor, and PSR100% is the average product sum ratio in 100%-inhibition control samples. The IC50 values of inhibitors were determined by fitting the %-inhibition curves with 4 parameter dose-response models using XLfit 4 software.

| SMILES | pIC50 |
| --- | --- |
| O=C(NO)c1ccc2c(c1)OC[C@@H](c1cccnc1)N(C(=O)C1CCOCC1)C2 (single isomer, unassigned) | ≥ 7.00 |
| O=C(NO)c1ccc2c(c1)OC[C@@H](c1ccccc1C(F)(F)F)N(C(=O)C1CCOCC1)C2 (single isomer, unassigned) | < 6.30 |
| O=C(NO)c1ccc2c(c1)OC[C@@H](c1cccc(C(F)(F)F)c1)N(C(=O)C1CCOCC1)C2 (single isomer, unassigned) | 6.30 to 7.00 |
| O=C(NO)c1ccc2c(c1)OC[C@H](c1cccnc1)N(C(=O)C1CCOCC1)C2 (single isomer, unassigned) | 6.30 to 7.00 |
| O=C(NO)c1ccc2c(c1)OC[C@H](c1ccccc1)N(C(=O)[C@@H]1CCCOC1)C2 (single isomer, unassigned) | ≥ 7.00 |
| O=C(NO)c1ccc2c(c1)OC[C@H](c1ccccc1)N(C(=O)[C@@H]1CCOC1)C2 (single isomer, unassigned) | ≥ 7.00 |
| O=C(NO)c1ccc2c(c1)OC[C@H](c1ccccc1)N(C(=O)[C@H]1CCCOC1)C2 (single isomer, unassigned) | ≥ 7.00 |
| O=C(NO)c1ccc2c(c1)OC[C@H](c1ccccc1)N(C(=O)[C@H]1CCOC1)C2 (single isomer, unassigned) | ≥ 7.00 |
| O=C(NO)c1ccc2c(c1)OC[C@H](c1ccccc1C(F)(F)F)N(C(=O)C1CCOCC1)C2 (single isomer, unassigned) | ≥ 7.00 |
| O=C(NO)c1ccc2c(c1)OC[C@H](c1cccc(C(F)(F)F)c1)N(C(=O)C1CCOCC1)C2 (single isomer, unassigned) | ≥ 7.00 |
| O=C(NO)c1ccc2c(c1)OC[C@H](c1ccccc1)N(C(=O)C1CC3CCC(C1)O3)C2 (stereo partly drawn) [(3S)-4-(8-oxabicyclo[3.2.1]octane-3-carbonyl)-N-hydroxy-3-phenyl-2,3,4,5-tetrahydrobenzo[f][1,4]oxazepine-8-carboxamide] | ≥ 7.00 |
| O=C(NO)c1ccc2c(c1)OC[C@H](c1ccccc1)N(C(=O)C1CCCO1)C2 (stereo partly drawn) [(3S)-N-hydroxy-3-phenyl-4-(tetrahydrofuran-2-carbonyl)-2,3,4,5-tetrahydrobenzo[f][1,4]oxazepine-8-carboxamide] | ≥ 7.00 |
| O=C(NO)c1ccc2c(c1)OC[C@@H](c1ccccc1F)N(C(=O)C1CCOCC1)C2 [(R)-3-(2-fluorophenyl)-N-hydroxy-4-(tetrahydro-2H-pyran-4-carbonyl)-2,3,4,5-tetrahydrobenzo[f][1,4]oxazepine-8-carboxamide] | 6.30 to 7.00 |
| O=C(NO)c1ccc2c(c1)OC[C@@H](c1ccccc1)N(C(=O)C1CCOCC1)C2 [(R)-N-hydroxy-3-phenyl-4-(tetrahydro-2H-pyran-4-carbonyl)-2,3,4,5-tetrahydrobenzo[f][1,4]oxazepine-8-carboxamide] | < 6.30 |
| O=C(NO)c1ccc2c(c1)OC[C@H](c1ccccc1F)N(C(=O)C1CCOCC1)C2 [(S)-3-(2-fluorophenyl)-N-hydroxy-4-(tetrahydro-2H-pyran-4-carbonyl)-2,3,4,5-tetrahydrobenzo[f][1,4]oxazepine-8-carboxamide] | ≥ 7.00 |
| O=C(NO)c1ccc2c(c1)OC[C@H](c1cccc(Cl)c1)N(C(=O)C1CCOCC1)C2 [(S)-3-(3-chlorophenyl)-N-hydroxy-4-(tetrahydro-2H-pyran-4-carbonyl)-2,3,4,5-tetrahydrobenzo[f][1,4]oxazepine-8-carboxamide] | ≥ 7.00 |
| O=C(NO)c1ccc2c(c1)OC[C@H](c1cccc(F)c1)N(C(=O)C1CCOCC1)C2 [(S)-3-(3-fluorophenyl)-N-hydroxy-4-(tetrahydro-2H-pyran-4-carbonyl)-2,3,4,5-tetrahydrobenzo[f][1,4]oxazepine-8-carboxamide] | ≥ 7.00 |
| O=C(NO)c1ccc2c(c1)OC[C@H](c1ccc(Cl)cc1)N(C(=O)C1CCOCC1)C2 [(S)-3-(4-chlorophenyl)-N-hydroxy-4-(tetrahydro-2H-pyran-4-carbonyl)-2,3,4,5-tetrahydrobenzo[f][1,4]oxazepine-8-carboxamide] | ≥ 7.00 |
| O=C(NO)c1ccc2c(c1)OC[C@H](c1ccc(F)cc1)N(C(=O)C1CCOCC1)C2 [(S)-3-(4-fluorophenyl)-N-hydroxy-4-(tetrahydro-2H-pyran-4-carbonyl)-2,3,4,5-tetrahydrobenzo[f][1,4]oxazepine-8-carboxamide] | ≥ 7.00 |
| CC(=O)N1CCC(C(=O)N2Cc3ccc(C(=O)NO)cc3OC[C@@H]2c2ccccc2)CC1 [(S)-4-(1-acetylpiperidine-4-carbonyl)-N-hydroxy-3-phenyl-2,3,4,5-tetrahydrobenzo[f][1,4]oxazepine-8-carboxamide] | ≥ 7.00 |
| O=C(NO)c1ccc2c(c1)OC[C@H](c1ccccc1)N(C(=O)c1ccc(F)cc1)C2 [(S)-4-(4-fluorobenzoyl)-N-hydroxy-3-phenyl-2,3,4,5-tetrahydrobenzo[f][1,4]oxazepine-8-carboxamide] | ≥ 7.00 |
| O=C(NO)c1ccc2c(c1)OC[C@H](c1ccccc1)N(C(=O)C1(F)CCOCC1)C2 [(S)-4-(4-fluorotetrahydro-2H-pyran-4-carbonyl)-N-hydroxy-3-phenyl-2,3,4,5-tetrahydrobenzo[f][1,4]oxazepine-8-carboxamide] | ≥ 7.00 |
| O=C(NO)c1ccc2c(c1)OC[C@H](c1ccccc1)N(C(=O)C1CCC1)C2 [(S)-4-(cyclobutanecarbonyl)-N-hydroxy-3-phenyl-2,3,4,5-tetrahydrobenzo[f][1,4]oxazepine-8-carboxamide] | ≥ 7.00 |
| O=C(NO)c1ccc2c(c1)OC[C@H](c1ccccc1)N(C(=O)C1CCCCC1)C2 [(S)-4-(cyclohexanecarbonyl)-N-hydroxy-3-phenyl-2,3,4,5-tetrahydrobenzo[f][1,4]oxazepine-8-carboxamide] | ≥ 7.00 |
| O=C(NO)c1ccc2c(c1)OC[C@H](c1ccccc1)N(C(=O)C1CCCC1)C2 [(S)-4-(cyclopentanecarbonyl)-N-hydroxy-3-phenyl-2,3,4,5-tetrahydrobenzo[f][1,4]oxazepine-8-carboxamide] | ≥ 7.00 |
| CC(=O)N1Cc2ccc(C(=O)NO)cc2OC[C@@H]1c1ccccc1 [(S)-4-acetyl-N-hydroxy-3-phenyl-2,3,4,5-tetrahydrobenzo[f][1,4]oxazepine-8-carboxamide] | ≥ 7.00 |
| O=C(NO)c1ccc2c(c1)OC[C@H](c1ccccc1)N(C(=O)C1CCOCC1)C2 [(S)-N-hydroxy-3-phenyl-4-(tetrahydro-2H-pyran-4-carbonyl)-2,3,4,5-tetrahydrobenzo[f][1,4]oxazepine-8-carboxamide] | ≥ 7.00 |
| O=C(NO)c1ccc2c(c1)OC[C@H](c1ccccc1)N(C(=O)c1ccccn1)C2 [(S)-N-hydroxy-3-phenyl-4-picolinoyl-2,3,4,5-tetrahydrobenzo[f][1,4]oxazepine-8-carboxamide] | ≥ 7.00 |
| CC(C)(C)C(=O)N1Cc2ccc(C(=O)NO)cc2OC[C@@H]1c1ccccc1 [(S)-N-hydroxy-3-phenyl-4-pivaloyl-2,3,4,5-tetrahydrobenzo[f][1,4]oxazepine-8-carboxamide] | ≥ 7.00 |
| COC1(C(=O)N2Cc3ccc(C(=O)NO)cc3OC[C@@H]2c2ccccc2)CCCCC1 [(S)-N-hydroxy-4-(1-methoxycyclohexane-1-carbonyl)-3-phenyl-2,3,4,5-tetrahydrobenzo[f][1,4]oxazepine-8-carboxamide] | ≥ 7.00 |
